Assays:
Experiment in all cases: KINOMEscan competition binding
FAK = FAK (Homo sapiens, UniProt Q05397); conditions: FAK (Entrez PTK2), read-out: Percent Control
Experimental: (§1) KINOMEscan™ is based on a competition binding assay that quantitatively measures the ability of a compound to compete with an immobilized, active-site directed ligand (Fabian et al. (2005) Nat. Biotechnol. 23, 329; Karaman et al. (2008) Nat. Biotechnol. 26, 127). The compound was screened at 10 μM, and results for primary screen binding interactions are reported as ‘% Ctrl’, where lower numbers indicate stronger hits. The results for kinases targets with a % Ctrl less than 30 can be seen in Table 2.

KIT(A829P) = KIT(A829P) (Homo sapiens, UniProt P10721, A829P); conditions: read-out: Percent Control
Experimental: as §1

RET(V804L) = target: T1, RET(V804L) (Homo sapiens, UniProt P07949, V804L); conditions: read-out: Percent Control
T1 construct: purchased KINOMEscan (panel service)
Experimental: as §1

[1] = target: T2, JAK2(JH1domain-catalytic) (Homo sapiens, UniProt O60674); conditions: read-out: Percent Control
T2 construct: JAK2(JH1domain-catalytic)
Experimental: as §1

MAP4K5 = MAP4K5 (Homo sapiens, UniProt Q9Y4K4); conditions: read-out: Percent Control
Experimental: as §1

ROS1 = target: T3, ROS1 (Homo sapiens, UniProt P08922); conditions: read-out: Percent Control
T3 construct: purchased KINOMEscan (screening service)
Experimental: as §1

[2] = target: EGFR(L747-E749del, A750P) (Homo sapiens, UniProt P00533, A750P/DEL747-749); conditions: read-out: Percent Control
Experimental: as §1

PDGFRA = PDGFRA (Homo sapiens, UniProt P16234); conditions: read-out: Percent Control
Experimental: as §1

BRK = BRK (Homo sapiens, UniProt Q13882); conditions: BRK (Entrez PTK6), read-out: Percent Control
Experimental: as §1

DRAK1 = target: T4, DRAK1 (Homo sapiens, UniProt Q9UEE5); conditions: DRAK1 (Entrez STK17A), read-out: Percent Control
T4 construct: purchased KINOMEscan (screening platform)
Experimental: as §1

KIT(V559D) = KIT(V559D) (Homo sapiens, UniProt P10721, V559D); conditions: read-out: Percent Control
Experimental: as §1

SRMS = SRMS (Homo sapiens, UniProt Q9H3Y6); conditions: read-out: Percent Control
Experimental: as §1

GCN2(Kin.Dom.2, S808G) = target: T5, GCN2(Kin.Dom.2, S808G) (Homo sapiens, UniProt Q9P2K8, S808G); conditions: GCN2(Kin.Dom.2, S808G) (Entrez EIF2AK4), read-out: Percent Control
T5 construct: GCN2(Kin.Dom.2, S808G)
Experimental: as §1

[3] = target: ABL1(M351T)-phosphorylated (Homo sapiens, UniProt P00519, M351T); conditions: read-out: Percent Control
Experimental: as §1

RAF1 = target: T6, RAF1 (Homo sapiens, UniProt P04049); conditions: read-out: Percent Control
T6 construct: purchased KINOMEscan (screening service)
Experimental: as §1

DDR2 = target: T7, DDR2 (Homo sapiens, UniProt Q16832); conditions: read-out: Percent Control
T7 construct: purchased KINOMEscan (screening service)
Experimental: as §1

FLT3(N841I) = FLT3(N841I) (Homo sapiens, UniProt P36888, N841I); conditions: read-out: Percent Control
Experimental: as §1

MLK3 = MLK3 (Homo sapiens, UniProt Q16584); conditions: MLK3 (Entrez MAP3K11), read-out: Percent Control
Experimental: as §1

[4] = target: ABL1(T315I)-nonphosphorylated (Homo sapiens, UniProt P00519, T315I); conditions: read-out: Percent Control
Experimental: as §1

EGFR(G719C) = EGFR(G719C) (Homo sapiens, UniProt P00533, G719C); conditions: read-out: Percent Control
Experimental: as §1

RIPK2 = RIPK2 (Homo sapiens, UniProt O43353); conditions: read-out: Percent Control
Experimental: as §1

SRC = target: T8, SRC (Homo sapiens, UniProt P12931); conditions: read-out: Percent Control
T8 construct: purchased KINOMEscan (panel service)
Experimental: as §1

FLT4 = FLT4 (Homo sapiens, UniProt P35916); conditions: read-out: Percent Control
Experimental: as §1

BRAF(V600E) = target: T9, BRAF(V600E) (Homo sapiens, UniProt P15056, V600E); conditions: read-out: Percent Control
T9 construct: purchased KINOMEscan (panel service)
Experimental: as §1

IKK-beta = target: T10, IKK-beta (Homo sapiens, UniProt O14920); conditions: IKK-beta (Entrez IKBKB), read-out: Percent Control
T10 construct: purchased KINOMEscan (screening service)
Experimental: as §1

JNK1 = target: T11, JNK1 (Homo sapiens, UniProt P45983); conditions: JNK1 (Entrez MAPK8), read-out: Percent Control
T11 construct: purchased KINOMEscan (screening platform)
Experimental: as §1

TRPM6 = target: T12, TRPM6 (Homo sapiens, UniProt Q9BX84); conditions: read-out: Percent Control
T12 construct: purchased KINOMEscan (screening platform)
Experimental: as §1

TAK1 = target: T13, TAK1 (Homo sapiens, UniProt O43318); conditions: TAK1 (Entrez MAP3K7), read-out: Percent Control
T13 construct: purchased KINOMEscan (panel service)
Experimental: as §1

CIT = target: T14, CIT (Homo sapiens, UniProt O14578); conditions: read-out: Percent Control
T14 construct: purchased KINOMEscan (panel service)
Experimental: as §1

GAK = target: T15, GAK (Homo sapiens, UniProt O14976); conditions: read-out: Percent Control
T15 construct: purchased KINOMEscan (screening service)
Experimental: as §1

EGFR(T790M) = target: T16, EGFR(T790M) (Homo sapiens, UniProt P00533, T790M); conditions: read-out: Percent Control
T16 construct: purchased KINOMEscan (screening service)
Experimental: as §1

KIT = target: T17, KIT (Homo sapiens, UniProt P10721); conditions: read-out: Percent Control
T17 construct: purchased KINOMEscan (panel service)
Experimental: as §1

[5] = target: T18, ABL1(H396P)-nonphosphorylated (Homo sapiens, UniProt P00519, H396P); conditions: read-out: Percent Control
T18 construct: purchased KINOMEscan (panel service)
Experimental: as §1

MINK = MINK (Homo sapiens, UniProt Q8N4C8); conditions: MINK (Entrez MINK1), read-out: Percent Control
Experimental: as §1

HCK = HCK (Homo sapiens, UniProt P08631); conditions: read-out: Percent Control
Experimental: as §1

Chain of HCK (P08631 whole entry): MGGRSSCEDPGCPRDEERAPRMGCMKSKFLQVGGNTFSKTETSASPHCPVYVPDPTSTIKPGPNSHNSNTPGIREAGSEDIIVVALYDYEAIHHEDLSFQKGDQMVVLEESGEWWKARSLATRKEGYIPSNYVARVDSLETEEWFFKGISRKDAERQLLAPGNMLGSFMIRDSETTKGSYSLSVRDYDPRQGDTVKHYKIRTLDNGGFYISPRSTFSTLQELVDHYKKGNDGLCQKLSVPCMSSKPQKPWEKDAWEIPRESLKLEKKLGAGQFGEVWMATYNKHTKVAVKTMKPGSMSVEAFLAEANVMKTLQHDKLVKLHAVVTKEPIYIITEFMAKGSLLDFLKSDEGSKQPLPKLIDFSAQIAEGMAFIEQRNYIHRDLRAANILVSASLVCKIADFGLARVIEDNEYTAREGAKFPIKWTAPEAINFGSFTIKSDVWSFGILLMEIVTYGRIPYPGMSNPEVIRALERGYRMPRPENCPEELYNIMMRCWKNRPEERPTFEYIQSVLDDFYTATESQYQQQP
T2 sequence (O60674 849-1124 limits assumed): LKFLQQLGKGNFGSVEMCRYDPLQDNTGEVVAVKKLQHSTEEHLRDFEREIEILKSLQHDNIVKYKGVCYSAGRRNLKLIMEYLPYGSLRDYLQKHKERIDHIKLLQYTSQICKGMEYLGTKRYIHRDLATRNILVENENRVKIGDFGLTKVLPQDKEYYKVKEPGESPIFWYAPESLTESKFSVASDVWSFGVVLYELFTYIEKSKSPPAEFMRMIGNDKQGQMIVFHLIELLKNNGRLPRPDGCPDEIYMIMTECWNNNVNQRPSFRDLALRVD
T12 sequence (Q9BX84 1750-1980 limits assumed): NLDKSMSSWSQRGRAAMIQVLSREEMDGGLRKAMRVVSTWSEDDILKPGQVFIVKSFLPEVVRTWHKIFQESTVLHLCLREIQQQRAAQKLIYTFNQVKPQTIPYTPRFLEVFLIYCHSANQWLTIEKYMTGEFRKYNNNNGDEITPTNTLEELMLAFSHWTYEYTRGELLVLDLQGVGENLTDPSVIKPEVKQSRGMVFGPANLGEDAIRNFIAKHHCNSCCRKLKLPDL
Chain of RIPK2 (O43353 whole entry): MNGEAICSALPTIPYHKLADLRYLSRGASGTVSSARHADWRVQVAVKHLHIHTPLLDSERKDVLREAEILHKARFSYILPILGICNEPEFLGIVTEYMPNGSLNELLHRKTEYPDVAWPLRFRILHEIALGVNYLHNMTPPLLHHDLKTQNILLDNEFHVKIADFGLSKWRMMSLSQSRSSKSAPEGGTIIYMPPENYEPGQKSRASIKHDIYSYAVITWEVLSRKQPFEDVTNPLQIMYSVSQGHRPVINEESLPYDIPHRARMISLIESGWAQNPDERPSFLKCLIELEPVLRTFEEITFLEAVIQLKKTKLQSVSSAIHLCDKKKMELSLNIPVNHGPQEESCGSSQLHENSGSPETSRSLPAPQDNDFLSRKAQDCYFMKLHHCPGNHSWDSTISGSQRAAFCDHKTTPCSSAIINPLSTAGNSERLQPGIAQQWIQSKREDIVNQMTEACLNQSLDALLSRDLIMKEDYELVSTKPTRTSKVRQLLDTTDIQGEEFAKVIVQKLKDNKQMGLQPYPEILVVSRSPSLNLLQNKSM
T3 sequence (P08922 28-2347): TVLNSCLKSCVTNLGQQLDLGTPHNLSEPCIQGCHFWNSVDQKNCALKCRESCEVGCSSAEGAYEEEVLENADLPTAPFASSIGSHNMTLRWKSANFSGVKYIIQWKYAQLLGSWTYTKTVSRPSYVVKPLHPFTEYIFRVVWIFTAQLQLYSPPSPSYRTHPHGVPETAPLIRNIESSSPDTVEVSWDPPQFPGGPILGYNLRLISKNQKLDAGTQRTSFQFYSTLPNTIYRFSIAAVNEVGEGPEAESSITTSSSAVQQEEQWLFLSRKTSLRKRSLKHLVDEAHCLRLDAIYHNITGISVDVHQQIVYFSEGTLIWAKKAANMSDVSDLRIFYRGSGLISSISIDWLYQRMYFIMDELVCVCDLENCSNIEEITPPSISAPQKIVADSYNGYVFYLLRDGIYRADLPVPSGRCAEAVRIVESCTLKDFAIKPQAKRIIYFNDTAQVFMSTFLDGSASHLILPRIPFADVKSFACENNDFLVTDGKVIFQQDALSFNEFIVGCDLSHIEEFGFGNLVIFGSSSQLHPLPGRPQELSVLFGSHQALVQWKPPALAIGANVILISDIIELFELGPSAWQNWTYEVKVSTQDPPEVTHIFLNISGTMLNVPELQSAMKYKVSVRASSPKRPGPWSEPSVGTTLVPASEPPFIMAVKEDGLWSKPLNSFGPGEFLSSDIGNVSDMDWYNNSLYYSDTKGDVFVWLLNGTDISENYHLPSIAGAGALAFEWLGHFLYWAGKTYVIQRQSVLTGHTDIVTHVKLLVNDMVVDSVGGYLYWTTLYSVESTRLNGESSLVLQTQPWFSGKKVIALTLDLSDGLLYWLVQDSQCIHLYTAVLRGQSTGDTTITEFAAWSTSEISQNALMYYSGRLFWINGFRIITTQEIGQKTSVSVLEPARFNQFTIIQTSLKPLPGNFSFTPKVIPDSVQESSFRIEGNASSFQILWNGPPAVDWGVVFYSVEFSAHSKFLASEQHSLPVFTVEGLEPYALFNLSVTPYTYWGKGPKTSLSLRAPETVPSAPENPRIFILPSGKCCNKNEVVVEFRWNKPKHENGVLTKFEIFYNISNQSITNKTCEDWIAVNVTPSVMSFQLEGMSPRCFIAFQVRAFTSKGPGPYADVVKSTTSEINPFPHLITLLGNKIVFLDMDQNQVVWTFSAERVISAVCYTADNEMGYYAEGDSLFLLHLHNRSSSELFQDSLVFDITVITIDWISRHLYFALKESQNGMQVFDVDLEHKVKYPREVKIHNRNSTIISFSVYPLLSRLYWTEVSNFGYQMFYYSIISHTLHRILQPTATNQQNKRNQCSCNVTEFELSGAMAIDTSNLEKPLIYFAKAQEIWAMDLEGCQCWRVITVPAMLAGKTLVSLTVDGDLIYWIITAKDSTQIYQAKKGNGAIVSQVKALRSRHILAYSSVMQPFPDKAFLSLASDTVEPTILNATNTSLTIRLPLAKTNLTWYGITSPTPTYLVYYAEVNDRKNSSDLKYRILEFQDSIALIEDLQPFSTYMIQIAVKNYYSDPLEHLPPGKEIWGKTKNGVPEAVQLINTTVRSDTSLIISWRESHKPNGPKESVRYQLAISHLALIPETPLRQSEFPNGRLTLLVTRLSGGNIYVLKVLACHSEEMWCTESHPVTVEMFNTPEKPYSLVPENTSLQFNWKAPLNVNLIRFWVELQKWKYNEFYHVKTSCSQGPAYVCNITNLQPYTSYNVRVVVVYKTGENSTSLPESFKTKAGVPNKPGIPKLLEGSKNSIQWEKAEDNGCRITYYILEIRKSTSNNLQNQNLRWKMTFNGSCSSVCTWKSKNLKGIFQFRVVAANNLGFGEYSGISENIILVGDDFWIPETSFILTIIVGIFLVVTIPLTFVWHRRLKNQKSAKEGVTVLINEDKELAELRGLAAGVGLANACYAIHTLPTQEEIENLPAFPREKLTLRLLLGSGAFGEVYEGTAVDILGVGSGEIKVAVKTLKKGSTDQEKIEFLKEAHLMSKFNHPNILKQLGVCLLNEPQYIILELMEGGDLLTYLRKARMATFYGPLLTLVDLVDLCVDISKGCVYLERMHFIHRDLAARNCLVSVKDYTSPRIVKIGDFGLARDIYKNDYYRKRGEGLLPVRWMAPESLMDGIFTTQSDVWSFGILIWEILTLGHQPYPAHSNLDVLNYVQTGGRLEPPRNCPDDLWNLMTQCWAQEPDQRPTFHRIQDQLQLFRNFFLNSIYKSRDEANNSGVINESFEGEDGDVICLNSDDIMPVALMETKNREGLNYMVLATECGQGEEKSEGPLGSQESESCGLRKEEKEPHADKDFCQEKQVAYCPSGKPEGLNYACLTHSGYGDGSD
T6 sequence (P04049 whole entry): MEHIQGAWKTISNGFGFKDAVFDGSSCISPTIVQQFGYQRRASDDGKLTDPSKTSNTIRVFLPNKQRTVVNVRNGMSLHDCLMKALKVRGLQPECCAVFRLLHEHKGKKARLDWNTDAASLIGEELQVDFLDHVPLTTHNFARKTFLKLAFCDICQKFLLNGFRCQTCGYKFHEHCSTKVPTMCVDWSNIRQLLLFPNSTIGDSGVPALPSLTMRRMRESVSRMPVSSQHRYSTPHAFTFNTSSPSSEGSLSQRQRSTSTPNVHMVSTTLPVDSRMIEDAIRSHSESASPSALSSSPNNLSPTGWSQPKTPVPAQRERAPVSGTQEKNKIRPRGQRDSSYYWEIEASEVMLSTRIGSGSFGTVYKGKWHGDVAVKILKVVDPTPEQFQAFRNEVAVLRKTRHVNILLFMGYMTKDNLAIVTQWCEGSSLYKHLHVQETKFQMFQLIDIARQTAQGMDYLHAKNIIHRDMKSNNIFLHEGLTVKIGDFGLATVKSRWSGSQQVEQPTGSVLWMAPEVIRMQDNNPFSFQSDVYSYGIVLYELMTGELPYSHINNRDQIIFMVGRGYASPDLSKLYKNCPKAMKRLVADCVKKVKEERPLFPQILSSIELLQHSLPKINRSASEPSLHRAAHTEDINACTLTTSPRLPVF
T11 sequence (P45983 whole entry): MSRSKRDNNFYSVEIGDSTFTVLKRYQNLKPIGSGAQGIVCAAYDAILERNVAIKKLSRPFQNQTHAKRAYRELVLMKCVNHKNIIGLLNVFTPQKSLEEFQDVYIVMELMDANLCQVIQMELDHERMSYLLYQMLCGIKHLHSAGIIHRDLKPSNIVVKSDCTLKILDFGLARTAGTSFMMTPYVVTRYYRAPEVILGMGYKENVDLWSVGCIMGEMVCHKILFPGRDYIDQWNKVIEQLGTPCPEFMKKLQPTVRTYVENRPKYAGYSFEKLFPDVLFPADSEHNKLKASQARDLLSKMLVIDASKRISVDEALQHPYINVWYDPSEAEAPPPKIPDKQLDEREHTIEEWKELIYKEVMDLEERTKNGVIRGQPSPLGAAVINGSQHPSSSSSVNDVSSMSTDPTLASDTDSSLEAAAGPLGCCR

## Cc1ccc(Nc2ncc3c(n2)N(C)CN(c2cc(NC(=O)c4cccc(C(F)(F)F)c4)ccc2C)C3)cn1 [IA-9, N-(4-methyl-3-(1-methyl-7-((6-methylpyridin-3-yl)amino)-1,4-dihydropyrimido[4,5-d]pyrimidin-3(2H)-yl)phenyl)-3-(trifluoromethyl)benzamide]
FAK
  remaining binding at 10 µM: 6.6%
KIT(A829P)
  remaining binding at 10 µM: 3.6%
RET(V804L)
  remaining binding at 10 µM: 0%
[1]
  remaining binding at 10 µM: 0.35%
MAP4K5
  remaining binding at 10 µM: 2.5%
ROS1
  remaining binding at 10 µM: 17%
[2]
  remaining binding at 10 µM: 0%
PDGFRA
  remaining binding at 10 µM: 1.6%
BRK
  remaining binding at 10 µM: 0.9%
DRAK1
  remaining binding at 10 µM: 22%
KIT(V559D)
  remaining binding at 10 µM: 0%
SRMS
  remaining binding at 10 µM: 0.95%
GCN2(Kin.Dom.2, S808G)
  remaining binding at 10 µM: 1.3%
[3]
  remaining binding at 10 µM: 1.2%
RAF1
  remaining binding at 10 µM: 12%
DDR2
  remaining binding at 10 µM: 9.1%
FLT3(N841I)
  remaining binding at 10 µM: 0.55%
MLK3
  remaining binding at 10 µM: 5.8%
[4]
  remaining binding at 10 µM: 0%
EGFR(G719C)
  remaining binding at 10 µM: 0%
RIPK2
  remaining binding at 10 µM: 6%
SRC
  remaining binding at 10 µM: 0.15%
FLT4
  remaining binding at 10 µM: 0%
BRAF(V600E)
  remaining binding at 10 µM: 0.1%
IKK-beta
  remaining binding at 10 µM: 14%
JNK1
  remaining binding at 10 µM: 28%
TRPM6
  remaining binding at 10 µM: 26%
TAK1
  remaining binding at 10 µM: 0.1%
CIT
  remaining binding at 10 µM: 0.1%
GAK
  remaining binding at 10 µM: 7.4%
EGFR(T790M)
  remaining binding at 10 µM: 13%
KIT
  remaining binding at 10 µM: 0.05%
[5]
  remaining binding at 10 µM: 0.05%
MINK
  remaining binding at 10 µM: 3.6%
HCK
  remaining binding at 10 µM: 0.55%
